In this assay the test system is NL-RLuc virus. Nature of the assay: Inhibition of HIV Replication (NL-RLuc luciferase reporter virus in MT-2 cells). In kind it is cell-based. Conditions: Human immunodeficiency virus 1, MT2, 120 h. An excerpt:
Inhibition of HIV Replication:
A recombinant NL-RLuc proviral clone was constructed in which a section of the nef gene from NL4-3 was replaced with the Renilla Luciferase gene. This virus is fully infectious and can undergo multiple cycles of replication in cell culture. In addition, the luciferous reporter provides a simple and easy method for quantitating the extent of virus growth and consequently, the antiviral activity of test compounds. The plasmid pNLRLuc contains the proviral NL-Rluc DNA cloned into pUC18 at the PvuII site. The NL-RLuc virus was prepared by transfection of 293T cells with the plasmid pNLRLuc. Transfections were performed using the LipofectAMINE PLUS kit from Invitrogen (Carlsbad, Calif.) according to the manufacturer and the virus generated was titered in MT-2 cells. For susceptibility analyses, the titrated virus was used to infect MT-2 cells in the presence of compound, and after 5 days of incubation, cells were processed and quantitated for virus growth by the amount of expressed luciferase. Assay media was RPMI 1640 supplemented with 10% heat inactivated fetal bovine serum (FBS), 100 units/ml penicillin G/100 units/ml streptomycin, 10 mM HEPES buffer pH 7.55 and 2 mM L-glutamine. The results from at least 2 experiments were used to calculate the EC50 values. Luciferase was quantitated using the Dual Luciferase kit from Promega (Madison, Wis.). Susceptibility of viruses to compounds was determined by incubation in the presence of serial dilutions of the compound. The 50% effective concentration (EC50) was calculated by using the exponential form of the median effect equation where (Fa)=1/[1+(ED50/drug conc.)^m] (Johnson V A, Byington R T. Infectivity Assay. In Techniques in HIV Research. ed. Aldovini A, Walker B D. 71-76. New York: Stockton Press. 1990).

`Cc1noc(C)c1CCOc1ccc(-c2c(C)nc(C)c([C@H](OC(C)(C)C)C(=O)O)c2N2CCC(C)(C)CC2)cc1` [Example 53, (S)-2-(tert-butoxy)-2-(5-(4-(2-(3,5-dimethylisoxazol-4-yl)ethoxy)phenyl)-4-(4,4-dimethylpiperidin-1-yl)-2,6-dimethylpyridin-3-yl)acetic acid]: the EC50 is 2 nM.
Then `Cc1nc(C)c([C@H](OC(C)(C)C)C(=O)O)c(N2CCC(C3CC3)C2)c1-c1ccc(OCCc2ccc(F)cc2)cc1` (stereo partly drawn) [Example 68, (2S)-2-(tert-butoxy)-2-(4-(3-cyclopropylpyrrolidin-1-yl)-5-(4-(4-fluorophenethoxy)phenyl)-2,6-dimethylpyridin-3-yl)acetic acid], with 42 nM; and `COc1ncc(-c2c(C)nc(C)c([C@H](OC(C)(C)C)C(=O)O)c2N2CCC(C)(C)CC2)cn1` [Example 57, (S)-2-(tert-butoxy)-2-(4-(4,4-dimethylpiperidin-1-yl)-5-(2-methoxypyrimidin-5-yl)-2,6-dimethylpyridin-3-yl)acetic acid], with 217 nM.
Then `COc1ccc(CCOc2ccc(-c3c(C)nc(C)c([C@H](OC(C)(C)C)C(=O)O)c3N3CCC(C)(C)CC3)cc2)cc1` [Example 15, (S)-2-(tert-butoxy)-2-(4-(4,4-dimethylpiperidin-1-yl)-5-(4-(4-methoxyphenethoxy)phenyl)-2,6-dimethylpyridin-3-yl)acetic acid], with 4 nM; and `Cc1nc(C)c([C@H](OC(C)(C)C)C(=O)O)c(N2CCC(C)(C)CC2)c1-c1ccc(OCc2ccncc2)cc1` [Example 56, (S)-2-(tert-butoxy)-2-(4-(4,4-dimethylpiperidin-1-yl)-2,6-dimethyl-5-(4-(pyridin-4-ylmethoxy)phenyl)pyridin-3-yl)acetic acid], with 2 nM.
Compound `Cc1nc(C)c([C@H](OC(C)(C)C)C(=O)O)c(N2CCC(Cc3ccccc3)CC2)c1-c1ccc(OCCc2ccc(F)cc2)cc1` [Example 80, (S)-2-(4-(4-benzylpiperidin-1-yl)-5-(4-(4-fluorophenethoxy)phenyl)-2,6-dimethylpyridin-3-yl)-2-(tert-butoxy)acetic acid] returned an EC50 of 1770 nM.
In turn, `Cc1nc(C)c([C@H](OC(C)(C)C)C(=O)O)c(N2CCC(c3nc(C(C)C)no3)CC2)c1-c1ccc(OCCc2ccc(F)cc2)cc1` [Example 73, (S)-2-(tert-butoxy)-2-(5-(4-(4-fluorophenethoxy)phenyl)-4-(4-(3-isopropyl-1,2,4-oxadiazol-5-yl)piperidin-1-yl)-2,6-dimethylpyridin-3-yl)acetic acid] came in with an EC50 of 1030 nM.
`Cc1nc(C)c([C@H](OC(C)(C)C)C(=O)O)c(N2CCC(C)(C)CC2)c1-c1ccc(OCCc2c(F)c(F)cc(F)c2F)cc1` [Example 51, (S)-2-(tert-butoxy)-2-(4-(4,4-dimethylpiperidin-1-yl)-2,6-dimethyl-5-(4-(2,3,5,6-tetrafluorophenethoxy)phenyl)pyridin-3-yl)acetic acid] yielded an EC50 of 6 nM.
Then `CCOc1ccc(-c2c(C)nc(C)c([C@H](OC(C)(C)C)C(=O)O)c2N2CCC(C)(C)CC2)cc1` [Example 10, (S)-2-(tert-butoxy)-2-(4-(4,4-dimethylpiperidin-1-yl)-5-(4-ethoxyphenyl)-2,6-dimethylpyridin-3-yl)acetic acid], with 27 nM.
Then `Cc1nc(C)c([C@H](OC(C)(C)C)C(=O)O)c(N2CCC(C)(C)CC2)c1-c1ccc(OCc2ccc(Cl)cc2)cc1` [Example 9, (S)-2-(tert-butoxy)-2-(5-(4-((4-chlorobenzyl)oxy)phenyl)-4-(4,4-dimethylpiperidin-1-yl)-2,6-dimethylpyridin-3-yl)acetic acid], with 9 nM; and `Cc1nc(C)c([C@H](OC(C)(C)C)C(=O)O)c(N2CCC(C)(C)CC2)c1-c1ccc(OCc2ccc(C#N)cc2)cc1` [Example 20, (S)-2-(tert-Butoxy)-2-(5-(4-((4-cyanobenzyl)oxy)phenyl)-4-(4,4-dimethylpiperidin-1-yl)-2,6-dimethylpyridin-3-yl)acetic acid], with 3 nM.
Then `CCC1(C)CCN(c2c(-c3ccc(OCCc4ccc(F)cc4)cc3)c(C)nc(C)c2[C@H](OC(C)(C)C)C(=O)O)CC1` [Example 75, (S)-2-(tert-butoxy)-2-(4-(4-ethyl-4-methylpiperidin-1-yl)-5-(4-(4-fluorophenethoxy)phenyl)-2,6-dimethylpyridin-3-yl)acetic acid], with 4 nM.
For `Cc1nc(C)c([C@H](OC(C)(C)C)C(=O)O)c(N2CCC(C)(C)CC2)c1-c1ccc(OC(C)C)c(Cl)c1` [Example 63, (S)-2-(tert-butoxy)-2-(5-(3-chloro-4-isopropoxyphenyl)-4-(4,4-dimethylpiperidin-1-yl)-2,6-dimethylpyridin-3-yl)acetic acid], the EC50 came out at 119 nM.
The value for `Cc1nc(C)c(CCOc2ccc(-c3c(C)nc(C)c([C@H](OC(C)(C)C)C(=O)O)c3N3CCC(C)(C)CC3)cc2)s1` [Example 48, (S)-2-(tert-butoxy)-2-(4-(4,4-dimethylpiperidin-1-yl)-5-(4-(2-(2,4-dimethylthiazol-5-yl)ethoxy)phenyl)-2,6-dimethylpyridin-3-yl)acetic acid] was 1 nM; that for `Cc1ncsc1CCOc1ccc(-c2c(C)nc(C)c([C@H](OC(C)(C)C)C(=O)O)c2N2CCC(C)(C)CC2)cc1` [Example 40, (S)-2-(tert-butoxy)-2-(4-(4,4-dimethylpiperidin-1-yl)-2,6-dimethyl-5-(4-(2-(4-methylthiazol-5-yl)ethoxy)phenyl)pyridin-3-yl)acetic acid] was 1 nM; that for `Cc1nc(C)c([C@H](OC(C)(C)C)C(=O)O)c(N2CCC(C)(C)CC2)c1-c1ccc(OCc2ccccc2)cc1` [Example 5, (S)-2-(5-(4-(benzyloxy)phenyl)-4-(4,4-dimethylpiperidin-1-yl)-2,6-dimethylpyridin-3-yl)-2-(tert-butoxy)acetic acid] was 11 nM.
`Cc1nc(C)c([C@H](OC(C)(C)C)C(=O)O)c(N2CCC(C)(C)CC2)c1-c1ccc(OCCc2cccc3ccccc23)cc1` [Example 38, (S)-2-(tert-butoxy)-2-(4-(4,4-dimethylpiperidin-1-yl)-2,6-dimethyl-5-(4-(2-(naphthalen-1-yl)ethoxy)phenyl)pyridin-3-yl)acetic acid] had an EC50 of 6 nM.
Take `Cc1nc(C)c([C@H](OC(C)(C)C)C(=O)O)c(N2CCC(C)(C)CC2)c1-c1ccc(OCc2ccccc2)c(F)c1` [Example 4, (S)-2-(5-(4-(benzyloxy)-3-fluorophenyl)-4-(4,4-dimethylpiperidin-1-yl)-2,6-dimethylpyridin-3-yl)-2-(tert-butoxy)acetic acid]: the EC50 amounted to 12 nM.
On to `CC(C)=C1CCN(c2c(-c3ccc(OCCc4ccc(F)cc4)cc3)c(C)nc(C)c2[C@H](OC(C)(C)C)C(=O)O)CC1` [Example 79, (S)-2-(tert-butoxy)-2-(5-(4-(4-fluorophenethoxy)phenyl)-2,6-dimethyl-4-(4-(propan-2-ylidene)piperidin-1-yl)pyridin-3-yl)acetic acid], for which a half-maximal response (EC50) required 291 nM.
The compound `Cc1nc(C)c([C@H](OC(C)(C)C)C(=O)O)c(N2CCC(C)(C)CC2)c1-c1ccc(OCCC(C)(C)C)cc1` [Example 14, (S)-2-(tert-butoxy)-2-(5-(4-(3,3-dimethylbutoxy)phenyl)-4-(4,4-dimethylpiperidin-1-yl)-2,6-dimethylpyridin-3-yl)acetic acid] registered an EC50 of 28 nM.

Source of the values: patent US9193720B2, “Pyridin-3-yl acetic acid derivatives as inhibitors of human immunodeficiency virus replication” (priority 2014, dated 2015).
